Laboratory results from patent US20230346827A1 (priority 2020, published 2023).

Legend:
Assay type in all cases: cell-based, human
Conditions in all cases: annotated relative to vehicle controls
[1] = system: coronary artery smooth muscle cells + (IL-1 β, TNFα and IFNy); assay: BioMAP CASM3C system
Text: (§1) Cell types and stimuli used in each system are as follows: 3C system [HUVEC + (IL-1β, TNFα and IFNy)], 4H system [HUVEC + (IL-4 and histamine)], LPS system [PBMC and HUVEC + LPS (TLR4 ligand)], SAg system [PBMC and HUVEC + TCR ligands], BT system [CD19+ B cells and PBMC + (α-IgM and TCR ligands)], BF4T system [bronchial epithelial cells and HDFn + (TNFα and IL-4)], BE3C system [bronchial epithelial cells + (IL-1β, TNFα and IFNy)], CASM3C system [coronary artery smooth muscle cells + (IL-1 β, TNFα and IFNy)], HDF3CGF system [HDFn + (IL-1β, TNFα, IFNy, EGF, bFGF and PDGF-BB)], KF3CT system [keratinocytes and HDFn + (IL-1β, TNFα, IFNy and TGFβ)], MyoF system [differentiated lung myofibroblasts + (TNFα and TGFβ)] and Mphg system [HUVEC and M1 macrophages + Zymosan (TLR2 ligand)].
(§2) Systems are derived from either single cell types or co-culture systems. Adherent cell types are cultured in 96 or 384-well plates until confluence, followed by the addition of PBMC (SAg and LPS systems). […] Soluble factors from supernatants are quantified using either HTRF® detection, bead-based multiplex immunoassay or capture ELISA. Overt adverse effects of test agents on cell proliferation and viability (cytotoxicity) are detected by sulforhodamine B (SRB) staining, for adherent cells, and alamarBlue® reduction for cells in suspension. […]

[2] = system: HUVEC + (IL-1β, TNFα and IFNy); assay: BioMAP 3C system
Text: as §1, §2

[3] = system: keratinocytes and HDFn + (IL-1β, TNFα, IFNy and TGFβ); assay: BioMAP KF3CT system
Text: as §1, §2

sodium salt of dextran sulfate [LMW-DS] was tested, and the Decreased biomarker activity [1] was “VCAM-1, MIG”, the Increased biomarker activity [2] was “IL-8” and the Decreased biomarker activity [3] was “MCP-1”. For the same substance, the Increased biomarker activity [3] was “IL-8”.
